Literature values as cited in patent publication US6740655B2, “Pyrimidine carboxamides useful as inhibitors of PDE4 isozymes” (Pfizer Inc, priority 2000, dated 2004).
Entries after “also recorded” stand apart in the source; their conditions may differ. Like-named read-outs stand apart in the source and are kept apart here.

Key:
[1] = system: allergic rhinitis; settings: in vivo
[2] = system: late reactions to inhaled allergen; settings: b18: 9.5 days oral, 15 and 30 mg
[3] = system: high-affinity rolipram binding site (Sr)
[4] = system: inflammatory parameters, atopic dermatitis
[5] = in vivo
[6] = rat
[7] = system: antigen-induced eosinophilia; settings: rat
[8] = system: PDE4 from U937 cells
[9] = doses up to 400 mg, 54 subjects
[10] = system: tumor cells; settings: at micromolar concentrations
[11] = system: guinea-pig trachea
[12] = system: psoriatic lesions
[13] = system: lipopolysaccharide-induced bowel erythrocyte extravasation; settings: rats; b385: pretreatment i.p. 3×, pentoxifylline 5 to 50, rolipram 10 to 30, debufylline 0.1 to 3 mg/kg
[14] = system: lipopolysaccharide-induced mesenteric blood flow fall
[15] = system: pulmonary artery rings
[16] = system: T-cell mediated hepatic failure; settings: mouse, in vivo

## O=C(Nc1c(Cl)cncc1Cl)C(=O)c1cn(Cc2ccc(F)cc2)c2ccc(O)cc12 [AWD-12,281]
[1]
  activity in rat model of allergic rhinitis: active

## COc1ccc([C@H](Cc2ccncc2)c2ccccc2)cc1OC1CCCC1 [CDP840]
[2]
  late reactions / late-phase response: suppression of late reactions; also recorded: significant inhibition of late-phase response

## COc1ccc(C2CNC(=O)NC2)cc1OC1CC2CCC1C2 (stereo not drawn) [CP-80,633]
[3]
  affinity at the Sr: high affinity
[4]; human, in vivo
  adverse effects: no adverse effects
[4]; topical, bilaterally over eight days, twenty patients
  inflammatory parameters: effectively inhibit all of the inflammatory parameters tested
[5]
  emesis / nausea and vomiting: elicit emesis

## COc1cc2c3c(c1)C(c1ccccc1)=N[C@@H](NC(=O)c1cc4ccccc4cn1)C(=O)N3CC2 [Cl-1018]
[6]
  oral bioavailability: 57%
[7]
  inhibition of antigen-induced eosinophilia: active
[7]; oral
  oral potency ED50: 5 mg/kg
[8]; read-out: IC50 PDE4 in U937 cells
  IC50: 1100 nM
[9]
  adverse events: no adverse events were reported

## COC(=O)c1ccc2c(=O)n(C3NC(c4ccccc4)c4cc(N)cc5c4N(CC5)C3=O)cnc2c1 (stereo not drawn) [Formula (0.0.53)]
[8]; read-out: IC50 against the PDE4 from U937 cells
  IC50: 3 nM

## Clc1nc2c(N3CCCC3)nc(N3CCNCC3)nc2nc1NCc1ccccc1 [Formula (0.0.55)]
[10]
  growth of tumor cells: inhibit the growth of tumor cells

## O=S1(=O)CCN(c2nc(NC3CC3)nc(C3CC3)n2)C1 [Formula (0.0.56)]
[11]
  relaxant activity in guinea-pig trachea model: potent relaxant agents

## CC1CC1c1nc(NC2CC2)nc(N2CCOCC2)n1 (stereo not drawn) [Formula (0.0.57)]
[11]
  relaxant activity in guinea-pig trachea model: potent relaxant agents

## O=C(NC1NC(c2ccccc2)c2cccc3c2N(CC3)C1=O)c1ccncc1 (stereo not drawn) [PD-168787]
[7]
  inhibition of antigen-induced eosinophilia: activity

## COc1ccc(CC2CNC(=O)N2)cc1OC1CCCC1 (stereo not drawn) [Ro 20-1724]
[12]; in vivo
  adverse systemic or cutaneous effects: without adverse systemic or cutaneous effects
[12]; versus vehicle
  effect on psoriatic lesions: improve psoriatic lesions

## CCCCn1c(=O)c2c(ncn2CC(C)=O)n(CCCC)c1=O [denbufylline]
[13]
  lipopolysaccharide-induced bowel erythrocyte extravasation: attenuated
[14]
  intestinal hypoperfusion in dogs: attenuated

## Cc1[nH]c(=O)c(C#N)cc1-c1ccncc1 [milrinone]
[15]
  relaxant activities of isoproterenol and forskolin: The same effect has been observed

## COc1ccc(C2CNC(=O)C2)cc1OC1CCCC1 (stereo not drawn) [rolipram]
[16]
  concanavalin A-induced IL4 release: suppress
[13]
  lipopolysaccharide-induced bowel erythrocyte extravasation: attenuated
[14]
  intestinal hypoperfusion in dogs: attenuated
